The test system of series [1] is A549 (human lung carcinoma). In words: MTT cytotoxicity assay, A549. The format is cell-based. To be noted: 48 h; for IC50: MTT.
Experimental: (§2) All cell lines were cultured in Roswell Park Memorial Institute 1640 culture media supplemented with 10% fetal bovine serum and incubated at 37°C in a 5% CO2 incubator. The IC50 values in Table 1 were measured by MTT assay according to our previous report [16].
(§3) The cell viability was obtained by the MTT assay.
For series [2], the system named is HeLa (human cervical cancer). In words: MTT cytotoxicity assay, HeLa. To be noted: 48 h. The format is cell-based. (Tetrazolium dyes change colour on reduction, which living cells bring about.)
Experimental: as §2, §3
The next series concerns MCF-7 (breast cancer). In words: MTT cytotoxicity assay, MCF-7. The format is cell-based, human.
Series [3] concerns HepG2 (human hepatocellular carcinoma). In words: MTT cytotoxicity assay, HepG2. The format is cell-based.
Experimental: as §2, §3
Series [4] relates to BEAS-2B (immortalized human bronchial epithelial cells). The series is described as follows: MTT cytotoxicity assay, normal BEAS-2B. The format is cell-based. To be noted: 48 h.
Experimental: as §2, §3
Series [5] concerns A549 cells. In words: Cellular uptake and subcellular distribution by ICP-MS. The format is cell-based, human. Here is the method:
A549 cells were seeded into six-well plates (5.0 × 10^5 cells per well) and grown overnight at 37°C in a 5% CO2 incubator. The cells were incubated with the different concentrations (5, 10, 15, and 20 μM) of Ru(II) complexes for different time intervals (1, 3, and 6 h). After the incubation, the cells were harvested and washed twice with PBS. Cell Mitochondria Isolation Kit was used to extract the nuclear, mitochondrial, and cytoplasmic fractions of the A549 cells. The pellets were digested with 3 mL concentrated nitric acid and 1 mL perhydrol for 24 h and then diluted to 5 mL with ultrapure water. Finally, ICP-MS was used to determine the amount of Ru(II) complexes uptaken by A549 cells.
It is generally acknowledged that the cellular uptake feature of transition metal-based compounds is an essential factor for their biological activities. As repeatedly reported by previous ruthenium complex-related studies, the more cellular uptake results in higher cytotoxicity. The cellular ruthenium concentration was determined by using ICP-MS after 1, 3, and 6 h of exposure to 5, 10, 15, and 20 μM Ru(II) complexes (Figure 2), respectively, and the results were reported as ng of ruthenium per 10^6 cell number.

Series [6] has as its system A549 cells. The series is described as follows: Annexin V-FITC/PI apoptosis flow cytometry. The format is cell-based, human. To be noted: 24 h. Here is the method: (§1) First, A549 cells were incubated in six-well plates for 12 h and then exposed to Ru(II) complexes for 24 h. After incubation, cell nuclei were stained with Hoechst 33342 (5 μg/mL) for 10 min, washed twice with PBS, and then photographed using an inverted fluorescence microscope. […] The suspension was stained with 5 μL Annexin V-FITC and 10 μL PI at room temperature for 15 min and then analyzed using the flow cytometer.

For series [7], the system named is A549 cells. In words: Intracellular ROS level, DCFH-DA flow cytometry. To be noted: 20 μM, 12 h. The format is cell-based, human. Here is the method: The mitochondrial membrane potential (MMP) of A549 cells was analyzed by using an inverted fluorescence microscope and flow cytometry. […] For microscope observation, the collected cells were incubated in complete medium containing JC-1 (10 μg/mL) for 30 min and washed with PBS twice and then imaged by an inverted fluorescence microscope (Nikon, Japan). For flow cytometry analysis, the cells were trypsinized and washed twice with PBS and then incubated in 500 μL PBS containing JC-1 (10 μg/mL) for 30 min at 37°C. The cells were analyzed by flow cytometer immediately. The intracellular ROS level of A549 cells was detected after DCFH-DA stain, as illustrated in our new publication.
Increasing intracellular ROS levels can trigger cell apoptosis. […] To explore the roles of ROS in Ru(II) complex-induced cell apoptosis, we detected intracellular ROS levels by using an inverted fluorescence microscope and flow cytometry after staining A549 cells with DCFH-DA fluorescent dye.

Series [8] can be described thus: Solution stability by UV-Vis absorption in water and CH3CN. The format is physicochemical. To be noted: 298 K, over 24 h, 20 μM. Here is the method: (N-N = dip, dmp) and salicylic acid in the presence of sodium hydroxide. The crude product was purified by chromatography over alumina. The obtained compounds were analyzed by elemental analysis, ESI-MS, ^1H NMR, FTIR, and UV-Vis absorption spectroscopy, and the results were shown in Figures S1–S7 in Supplementary Materials. […] In the UV-visible spectral regions, both complexes consist of two well-resolved absorption bands. In the visible region, these two complexes present a strong MLCT transition at 500–600 nm attributed to the overlap Ru(dπ)-dip or dmp (π^∗) and Ru(dπ)-SA (π^∗). The intense band occurring between 250 nm and 300 nm is attributed to an intra-ligand (IL) π-π^∗ transition by comparing with the spectra of other Ru(II)-polypyridyl complexes.

Series [9] in a line: Stability towards GSH and BSA by UV-Vis absorption. The format is physicochemical. To be noted: 12 h, 37 °C, PBS buffer (pH 7.4). As to the method: Investigating the hydrolysis in the presence of biorelevant molecules is very important to assess the chemical stability and biological activities of these title complexes.
Figure S8. UV/vis absorption of Ru-1 in the absence and presence of (A) GSH or (B) BSA. All spectra were acquired 12 h after GSH or BSA addition at 37 °C in PBS buffer (pH 7.4).
Figure S9. UV/vis absorption of Ru-2 in the absence and presence of (A) GSH or (B) BSA. All spectra were acquired 12 h after GSH or BSA addition at 37 °C in PBS buffer (pH 7.4).

Series [10] has as its system A549 cells. In words: Hoechst 33342 nuclear staining. The format is cell-based, human. To be noted: 20 μΜ, 24 h. As to the method:
as §1

Series [11] relates to A549 cells. The series is described as follows: Comet assay (single-cell gel electrophoresis), DNA damage. The format is cell-based, human. To be noted: 10 μM, 12 h. As to the method:
Single-cell gel electrophoresis was performed to detect DNA damage, as previously described. Comet assay was performed according to the manufacturer's instructions. DNA was stained with SYBR Green I (Trevigen) and imaged under an inverted fluorescence microscope.
Excessive intracellular ROS can activate DNA damaged sensor proteins and lead to DNA damage, an essential hallmark of cell apoptosis. Indeed, the DNA damage effect has been observed in many previously developed Ru(II) complexes. To determine whether or not these complexes can induce DNA damage, the single-cell gel electrophoresis assay (comet assay) was conducted in our study. […] Also, the comet assay (DNA fragments appearance) could serve as a mark for apoptosis assessment. As shown in Figure 6(a), in the control group, there was no comet-like cell observed. […] Increasing the concentration to 20 μM recorded markedly higher levels of comet tails, showing that more DNA fragmentation has occurred.

Broadly, the IC50 is the concentration that inhibits the measured activity by half.

Experimental for MCF-7 (breast cancer): as §2, §3

Consider `N.N.[Cl][Pt][Cl]` [Cisplatin], for which the “SI (selectivity index) = IC50 (BEAS-2B)/IC50 (A549)” value in series [1] turned out to be 0.8. Moreover, the half-maximal inhibitory concentration (IC50) in series [1] worked out at 27.2 ± 1.4 µM; in series [2] it was 18.3 ± 1.2 µM; in the series with MCF-7 (breast cancer) (48 h) it was 16.2 ± 2 µM; in [3] (48 h) it was 30.2 ± 2 µM; in series [4], 21.4 ± 1.5 µM.

For `[Cl-].[Cl-].[Ru+2].c1ccc(-c2ccnc3c2ccc2c(-c4ccccc4)ccnc23)cc1.c1ccc(-c2ccnc3c2ccc2c(-c4ccccc4)ccnc23)cc1` [Ru(dip)2Cl2, cis-[Ru(dip)2Cl2]], the IC50 was 138 ± 6.7 µM in series [1], 116 ± 6.8 µM in series [2], 135 ± 7.9 µM with MCF-7 (breast cancer) (48 h) and 108 ± 5.4 µM in series [3] (48 h).

For `O=C(O)c1ccccc1O` [SA, salicylic acid], the half-inhibitory concentration (IC50) was > 200 µM in series [1] (Homo sapiens, A549); > 200 µM in series [2] (Homo sapiens, HeLa); > 200 µM in the series with MCF-7 (breast cancer) (Homo sapiens, MCF7, 48 h); > 200 µM in series [3] (Homo sapiens, HepG2, 48 h).

With `Cc1ccc2ccc3ccc(C)nc3c2n1.Cc1ccc2ccc3ccc(C)nc3c2n1.[Cl-].[Cl-].[Ru+2]` [Ru(dmp)2Cl2, cis-[Ru(dmp)2Cl2]], the IC50 in series [1] was > 200 µM; in [2], > 200 µM; in the series on MCF-7 (breast cancer) (48 h) it was > 200 µM; in [3] (48 h), 169 ± 6.2 µM.

Regarding `Cc1ccc2ccc3ccc(C)nc3c2n1.Cc1ccc2ccc3ccc(C)nc3c2n1.O=C1[O][Ru][O]c2ccccc21` [Ru-2, [Ru(dmp)2(SA)]], the IC50 in series [1] was 30.1 ± 1.2 µM; in [2], 32.5 ± 2.4 µM; in the series with MCF-7 (breast cancer) (48 h), 45.7 ± 3.7 µM; in series [3] (48 h) it was 26.4 ± 2.1 µM; in [4] it was 48.1 ± 3.7 µM. The “Intracellular content of Ru” value with A549 cells [5] (5 μM, 1 h) is on record as 85.4 ± 9.3 ng Ru/10^6 A549 cell number; in the series on A549 cells [5] (5 μM, 3 h), 112.4±9.5 ng Ru/10^6 A549 cell number; in the series on A549 cells [5] (5 μM, 6 h), 142.5±9.6 ng Ru/10^6 A549 cell number; in the series on A549 cells [5] (10 μM, 1 h) it was 99.4±9.6 ng Ru/10^6 A549 cell number; in the series with A549 cells [5] (10 μM, 3 h) it was 134.6±8.3 ng Ru/10^6 A549 cell number; with A549 cells [5] (10 μM, 6 h), 173.2±8.9 ng Ru/10^6 A549 cell number. Besides, the “Intracellular content of Ru” value in the series on A549 cells [5] (15 μM, 1 h) is on record as 115.8±11.7 ng Ru/10^6 A549 cell number; with A549 cells [5] (15 μM, 3 h), 159.4±8.5 ng Ru/10^6 A549 cell number; in the series on A549 cells [5] (15 μM, 6 h) it was 204.6±8.9 ng Ru/10^6 A549 cell number; with A549 cells [5] (20 μM, 1 h), 138.7±15.3 ng Ru/10^6 A549 cell number; in the series on A549 cells [5] (20 μM, 3 h) it was 181.3±9.3 ng Ru/10^6 A549 cell number; in the series on A549 cells [5] (20 μM, 6 h) it was 235.2 ± 16.6 ng Ru/10^6 A549 cell number. In addition, the “early apoptotic cells (I4)” value in the series on A549 cells [6] (5 μM) is 2.79%; in the series with A549 cells [6] (10 μM) it was 15.83%; in the series with A549 cells [6] (20 μM), 15.47%. For the same molecule, the entries for the “late apoptotic/necrotic cells (I2)” value in the series with A549 cells [6] (5 μM) and in the series with A549 cells [6] (20 μM) were 0.00% and 10.19%, respectively. Besides, in the series with A549 cells [7], the “MFI higher than the control group” value is given as ~1.9 fold. The “change in UV-Vis absorption spectra (solution stability)” value in series [8] is “no significant change”. Moreover, in series [9], the “change in characteristic absorption with excessive GSH or BSA (stability)” value is “no significant change”. Besides, the “apoptotic features, Hoechst 33342 staining” value in the series with A549 cells [10] is “chromatin condensation, nuclear fragmentation, and plasma membrane blebbing”. Further, in the series with A549 cells [11], the “DNA fragmentation, comet assay” value is on record as “well-formed comet tails”.

These data come from article PMC7448123, “Ru(II) Complexes Bearing O, O-Chelated Ligands Induced Apoptosis in A549 Cells through the Mitochondrial Apoptotic Pathway” (Bioinorganic Chemistry and Applications, 2020).
